Test results taken from ChEMBL document CHEMBL1159259, “A bioactive tetraprenylphenol from Lactarius lignyotus” (1995).

Legend:
Assay type in all cases: functional
Design in all cases: scale not given: the % may be the effect or the level left
HeLa S3 [1] = assay: Inhibition of DNA synthesis in human HeLaS3 cells assessed as [3H]thymidine incorporation at 10.4 ug/ml after 45 mins by liquid scintillation counting
HeLa S3 [2] = assay: Inhibition of DNA synthesis in human HeLaS3 cells assessed as [3H]thymidine incorporation at 25 ug/ml after 45 mins by liquid scintillation counting
HeLa S3 [3] = assay: Inhibition of DNA synthesis in human HeLaS3 cells assessed as [3H]thymidine incorporation at 50 ug/ml after 45 mins by liquid scintillation counting
HeLa S3 [4] = assay: Inhibition of DNA synthesis in human HeLaS3 cells assessed as [3H]thymidine incorporation at 75 ug/ml after 45 mins by liquid scintillation counting
HeLa S3 [5] = assay: Inhibition of protein synthesis in human HeLaS3 cells assessed as [3H]leucine incorporation at 10.4 ug/ml after 45 mins by liquid scintillation counting
HeLa S3 [6] = assay: Inhibition of protein synthesis in human HeLaS3 cells assessed as [3H]leucine incorporation at 25 ug/ml after 45 mins by liquid scintillation counting
HeLa S3 [7] = assay: Inhibition of protein synthesis in human HeLaS3 cells assessed as [3H]leucine incorporation at 50 ug/ml after 45 mins by liquid scintillation counting
HeLa S3 [8] = assay: Inhibition of protein synthesis in human HeLaS3 cells assessed as [3H]leucine incorporation at 75 ug/ml after 45 mins by liquid scintillation counting
HeLa S3 [9] = assay: Inhibition of RNA synthesis in human HeLaS3 cells assessed as [3H]uridine incorporation at 10.4 ug/ml after 45 mins by liquid scintillation counting
HeLa S3 [10] = assay: Inhibition of RNA synthesis in human HeLaS3 cells assessed as [3H]uridine incorporation at 25 ug/ml after 45 mins by liquid scintillation counting
HeLa S3 [11] = assay: Inhibition of RNA synthesis in human HeLaS3 cells assessed as [3H]uridine incorporation at 50 ug/ml after 45 mins by liquid scintillation counting
HeLa S3 [12] = assay: Inhibition of RNA synthesis in human HeLaS3 cells assessed as [3H]uridine incorporation at 75 ug/ml after 45 mins by liquid scintillation counting
HL-60 [13] = assay: Inhibition of DNA synthesis in human HL60 cells assessed as [3H]thymidine incorporation at 10.4 ug/ml after 45 mins by liquid scintillation counting
HL-60 [14] = assay: Inhibition of DNA synthesis in human HL60 cells assessed as [3H]thymidine incorporation at 25 ug/ml after 45 mins by liquid scintillation counting
HL-60 [15] = assay: Inhibition of DNA synthesis in human HL60 cells assessed as [3H]thymidine incorporation at 50 ug/ml after 45 mins by liquid scintillation counting
HL-60 [16] = assay: Inhibition of DNA synthesis in human HL60 cells assessed as [3H]thymidine incorporation at 75 ug/ml after 45 mins by liquid scintillation counting
HL-60 [17] = assay: Inhibition of protein synthesis in human HL60 cells assessed as [3H]leucine incorporation at 10.4 ug/ml after 45 mins by liquid scintillation counting
HL-60 [18] = assay: Inhibition of protein synthesis in human HL60 cells assessed as [3H]leucine incorporation at 25 ug/ml after 45 mins by liquid scintillation counting
HL-60 [19] = assay: Inhibition of protein synthesis in human HL60 cells assessed as [3H]leucine incorporation at 50 ug/ml after 45 mins by liquid scintillation counting
HL-60 [20] = assay: Inhibition of protein synthesis in human HL60 cells assessed as [3H]leucine incorporation at 75 ug/ml after 45 mins by liquid scintillation counting
HL-60 [21] = assay: Inhibition of RNA synthesis in human HL60 cells assessed as [3H]uridine incorporation at 10.4 ug/ml after 45 mins by liquid scintillation counting
HL-60 [22] = assay: Inhibition of RNA synthesis in human HL60 cells assessed as [3H]uridine incorporation at 25 ug/ml after 45 mins by liquid scintillation counting
HL-60 [23] = assay: Inhibition of RNA synthesis in human HL60 cells assessed as [3H]uridine incorporation at 50 ug/ml after 45 mins by liquid scintillation counting
HL-60 [24] = assay: Inhibition of RNA synthesis in human HL60 cells assessed as [3H]uridine incorporation at 75 ug/ml after 45 mins by liquid scintillation counting

Compound	Activity (HeLa S3 [1]) [%]	Activity (HeLa S3 [2]) [%]	Activity (HeLa S3 [3]) [%]	Activity (HeLa S3 [4]) [%]	Activity (HeLa S3 [5]) [%]	Activity (HeLa S3 [6]) [%]	Activity (HeLa S3 [7]) [%]	Activity (HeLa S3 [8]) [%]	Activity (HeLa S3 [9]) [%]	Activity (HeLa S3 [10]) [%]	Activity (HeLa S3 [11]) [%]	Activity (HeLa S3 [12]) [%]	Activity (HL-60 [13]) [%]	Activity (HL-60 [14]) [%]	Activity (HL-60 [15]) [%]	Activity (HL-60 [16]) [%]	Activity (HL-60 [17]) [%]	Activity (HL-60 [18]) [%]	Activity (HL-60 [19]) [%]	Activity (HL-60 [20]) [%]	further results
CC(C)=CCC/C(C)=C/CC/C(C)=C/CC/C(C)=C/Cc1cc(O)ccc1O [GERANYLGERANYLHYDROQUINONE]	100	74	83	49	100	92	67	61	96	83	91	86	55	38	20	17	85	52	52	32	Activity (HL-60 [21]): 95%; Activity (HL-60 [22]): 32%; Activity (HL-60 [23]): 36%; Activity (HL-60 [24]): 42%
COc1ccc(O)c(CC=C(C)C)c1	100	59	70	31	96	43	38	37	97	86	91	90	64	32	14	1.5	49	38	35	32	Activity (HL-60 [21]): 98%; Activity (HL-60 [22]): 50%; Activity (HL-60 [23]): 55%; Activity (HL-60 [24]): 38%
